Assay results published in patent publication US9237747B2, “Herbicidal compositions comprising 4-amino-3-chloro-5-fluoro-6-(4-chloro-2-fluoro-3-methoxyphenyl) pyridine-2-carboxylic acid or a derivative thereof and insecticides” (priority 2013, dated 2016).
“And” between values parts separate entries of the source, which are not always exact repeats. Identical values can stand only once. Like-named read-outs stand apart in the source and are kept apart here.

What was measured:
DIGSA = type: in vivo, Digitaria sanguinalis
Procedure: Seeds or nutlets of the desired test plant species were planted in a soil matrix prepared by mixing a loam or sandy loam soil (e.g., 28.6 percent silt, 18.8 percent clay, and 52.6 percent sand, with a pH of about 5.8 and an organic matter content of about 1.8 percent) and calcareous grit in an 80 to 20 ratio. The soil matrix was contained in plastic pots with a volume of 1 quart and a surface area of 83.6 square centimeters (cm^2). […] The plants were grown for 8-22 days in a greenhouse with an approximate 14 hour (h) photoperiod which was maintained at about 29° C. during the day and 26° C. during the night. Nutrients (Peters Excel® 15-5-15 5-Ca 2-Mg and iron chelate) were applied in the irrigation solution as needed and water was added on a regular basis. Supplemental lighting was provided with overhead metal halide 1000-Watt lamps as necessary. The plants were employed for testing when they reached the first through fourth true leaf stage.
(§1) Treatments consisted of the acid or esters of 4-amino-3-chloro-6-(4-chloro-2-fluoro-3-methoxyphenyl)-5-fluoropyridine-2-carboxylic acid (Compound A), each formulated as an SC (suspension concentrate), and various insecticidal components alone and in combination. Forms of compound A were applied on an acid equivalent basis.
(§2) For treatments comprised of formulated compounds, measured amounts of compounds were placed individually in 25 mL glass vials and diluted in a volume of 1.25% volume per volume (v/v) Agri-Dex® crop oil concentrate to obtain 12× stock solutions. […] Application solutions were prepared by adding an appropriate amount of each stock solution (e.g., 1 mL) and diluted to the appropriate final concentrations with the addition of […] of an aqueous mixture of 1.25% (v/v) crop oil concentrate so that the final spray solutions contained 1.25+/−0.05% (v/v) crop oil concentrate.
(§3) As required, additional water and/or 97:3 v/v acetone/DMSO was added to individual application solutions so that the final acetone and DMSO concentrations of the application solutions being compared were 8.1% and 0.25%, respectively.
(§4) All stock solutions and applications solutions were visually inspected for compound compatibility prior to application. Spray solutions were applied to the plant material with an overhead Mandel track sprayer equipped with 8002E nozzles calibrated to deliver 187 L/ha over an application area of 0.503 square meters (m^2) at a spray height of 18 to 20 inches (46 to 50 cm) above average plant canopy height. Control plants were sprayed in the same manner with the solvent blank.
(§5) The treated plants and control plants were placed in a greenhouse as described above and watered by sub-irrigation to prevent wash-off of the test compounds. After approximately 3 weeks, the condition of the test plants as compared to that of the untreated plants was determined visually and scored on a scale of 0 to 100 percent where 0 corresponds to no injury or growth inhibition and 100 corresponds to complete kill.
(§6) Colby's equation was used to determine the herbicidal effects expected from the mixtures (Colby, S. R. Calculation of the synergistic and antagonistic response of herbicide combinations. Weeds 1967, 15, 20-22.).
(§7) The following equation was used to calculate the expected activity of mixtures containing two active ingredients, A and B: Expected=A+B−(A×B/100)

BRAPP = experiment: Postemergence foliar-applied weed control, direct-seeded rice (greenhouse); type: in vivo, Brachiaria platyphylla
Excerpt: Seeds or nutlets of the desired test plant species were planted in a soil matrix prepared by mixing a loam or sandy loam soil (e.g., 28.6 percent silt, 18.8 percent clay, and 52.6 percent sand, with a pH of about 5.8 and an organic matter content of about 1.8 percent) and calcareous grit in an 80 to 20 ratio. The soil matrix was contained in plastic pots with a volume of 1 quart and a surface area of 83.6 square centimeters (cm^2). When required to ensure good germination and healthy plants, a fungicide treatment and/or other chemical or physical treatment was applied. The plants were grown for 8-22 days in a greenhouse with an approximate 14 hour (h) photoperiod which was maintained at about 29° C. during the day and 26° C. during the night. Nutrients (Peters Excel® 15-5-15 5-Ca 2-Mg and iron chelate) were applied in the irrigation solution as needed and water was added on a regular basis. Supplemental lighting was provided with overhead metal halide 1000-Watt lamps as necessary. The plants were employed for testing when they reached the first through fourth true leaf stage.
as §1
Treatment requirements were calculated based upon the rates being tested, the concentration of active ingredient or acid equivalent in the formulation, and a 12 milliliter (mL) application volume at a rate of 187 liters per hectare (L/ha).
as §2, §3, §4, §5, §6, §7

In the case of COc1c(Cl)ccc(-c2nc(C(=O)O)c(Cl)c(N)c2F)c1F [Compound A Acid, 4-amino-3-chloro-6-(4-chloro-2-fluoro-3-methoxyphenyl)-5-fluoropyridine-2-carboxylic acid], the “Visual Weed Control (%) - 20 DAA DIGSA Obs” value (DIGSA; 4.38 g ae/ha alone) is reported as 40%, the “Visual Weed Control (%) - 20 DAA DIGSA Obs” value (DIGSA; 5.3 g ae/ha alone) is reported as 15% and the “Visual Weed Control (%) - 20 DAA DIGSA Obs” value (DIGSA; 10.6 g ae/ha alone) is reported as 35%. For the same compound, the “Visual Weed Control (%) - 20 DAA DIGSA Obs” value (DIGSA; 21.2 g ae/ha alone) was 50% and the “Visual Weed Control (%) - 20 DAA BRAPP Obs” value (BRAPP; 4.38 g ae/ha alone) was 70%.

COc1c(Cl)ccc(-c2nc(C(=O)OCc3ccccc3)c(Cl)c(N)c2F)c1F [Compound A Benzyl Ester] was tested, and the “Visual Weed Control (%) - 20 DAA DIGSA Obs” value (DIGSA; 4.38 g ae/ha alone) was 40% and 25%, the “Visual Weed Control (%) - 20 DAA DIGSA Obs” value (DIGSA; 8 g ae/ha alone) was 20% and the “Visual Weed Control (%) - 21 DAA DIGSA Obs” value (DIGSA; 8 g ae/ha alone) was 10%. For the same compound, the “Visual Weed Control (%) - 22 DAA DIGSA Obs” value (DIGSA; 8 g ae/ha alone) was 13%, the “Visual Weed Control (%) - 20 DAA DIGSA Obs” value (DIGSA; 16 g ae/ha alone) was 23% and 30% and the “Visual Weed Control (%) - 22 DAA DIGSA Obs” value (DIGSA; 16 g ae/ha alone) was 18%. For the same compound, the “Visual Weed Control (%) - 20 DAA DIGSA Obs” value (DIGSA; 17.5 g ae/ha alone) was 15%, the “Visual Weed Control (%) - 19 DAA DIGSA Obs” value (DIGSA; 8 g ae/ha alone) was 30% and the “Visual Weed Control (%) - 19 DAA DIGSA Obs” value (DIGSA; 16 g ae/ha alone) was 35%. For the same compound, the “Visual Weed Control (%) - 19 DAA DIGSA Obs” value (DIGSA; 32 g ae/ha alone) was 40%, the “Visual Weed Control (%) - 22 DAA DIGSA Obs” value (DIGSA; 22 DAA, 8 g ae/ha alone) was 10% and 13% and the “Visual Weed Control (%) - 22 DAA DIGSA Obs” value (DIGSA; 22 DAA, 8 g ae/ha alone, second part of Table 18) was 13%. For the same compound, the “Visual Weed Control (%) - 22 DAA DIGSA Obs” value (DIGSA; 22 DAA, 16 g ae/ha alone) was 25% and 18% and 20%, the “Visual Weed Control (%) - 22 DAA DIGSA Obs” value (DIGSA; 22 DAA, 16 g ae/ha alone, second part of Table 18) was 18% and the “Visual Weed Control (%) - 22 DAA DIGSA Obs” value (DIGSA; 22 DAA, 32 g ae/ha alone) was 40% and 28% and 25%. For the same compound, the “Visual Weed Control (%) - 22 DAA DIGSA Obs” value (DIGSA; 22 DAA, 32 g ae/ha alone, second part of Table 18) was 28%, the “Visual Weed Control (%) - 20 DAA DIGSA Obs” value (DIGSA; 32 g ae/ha alone) was 30% and 40% and the “Visual Weed Control (%) - 22 DAA DIGSA Obs” value (DIGSA; 32 g ae/ha alone) was 28%. For the same compound, the “Visual Weed Control (%) - 20 DAA BRAPP Obs” value (BRAPP; 4.38 g ae/ha alone) was 75%, the “Visual Weed Control (%) - 20 DAA BRAPP Obs” value (BRAPP; 8 g ae/ha alone) was 55% and the “Visual Weed Control (%) - 21 DAA BRAPP Obs” value (BRAPP; 8 g ae/ha alone) was 70%. The “Visual Weed Control (%) - 20 DAA BRAPP Obs” value (BRAPP; 8.75 g ae/ha alone) was 75% and the “Visual Weed Control (%) - 20 DAA BRAPP Obs” value (BRAPP; 17.5 g ae/ha alone) was 95%.
